Data as given in patent US20080171704A1, “Composition and method for treating diabetes” (priority 2001, published 2008).
Where a SMILES comes first, the peptide text is derived from it.

Experiments:
[1] = test system: ARIP cells, a rat pancreatic duct cell line; test: ARIP cell BrdU proliferation bioassay; format: cell-based; conditions: FIG. 1
Protocol: To confirm that the synthetic molecule is bioactive, a bioassay may be used to confirm the activity. ARIP cells, a rat pancreatic duct cell line, obtained from ATCC (Manassas, Va.) are used in the assay. Cells are plated into a 96-well culture plate at 10,000 cells/well, and cultured for 24 hours in Dulbecco's […] Essential Medium (DMEM) containing 10% fetal bovine serum. After 24 hours, the medium is replaced with DMEM without serum. […] After 21 hours, the medium is supplemented with bromodeoxyuridine (BrdU) labeling solution from a BrdU cell proliferation ELISA kit (Roche Molecular Biochemicals) and cultured for a further 3 hours. At 24 hours the cells are dried at 60° C. for 60 minutes, fixed and denatured. They are exposed to BrdU antibody for 90 minutes and developed for 15 minutes, all according to kit instructions. BrdU labeling is quantitated on a Wallac Victor 1420 Multilabel Counter. Results are compared against a standard curve of cells grown on the same culture plate, seeded at densities from 100 to 20,000 cells per well.

beagle dogs = test: 34-day dog repeat-dose toxicology study; format: in vivo
Protocol: FIG. 8. Effects of daily injection of INGAP Peptide to dogs for 34 days on the area of cells in the pancreas that becomes positive for insulin by immunohistochemical staining. Data are mean ±SEM. The percentage of cross-sectional area stained for insulin was determined with an Olympus microscope (150×) and image analysis software (Image Pro Plus Version 4.0, Media Cybernetics).
A repeat-dose toxicology study was conducted in beagle dogs for 34 days with daily IM injection of INGAP Peptide at 0, 0.5, 1.5, and 10 mg/kg/day. Pancreatic tissue was obtained for quantitation of β-cell mass by immunohistochemistry from animals sacrificed on Day 34, at termination of treatment, and from recovery animals sacrificed 25 days after termination of treatment. Pancreatic β-cell mass was increased following INGAP Peptide administration (see FIG. 8).

CD-1 mice = test: 31-day mouse repeat-dose toxicology study; format: in vivo
Protocol: (§1) FIG. 7. Immunopositive tissue area in normal mouse following treatment with INGAP Peptide for 31 days. Data are mean ±SEM. The percentage of cross-sectional area stained for insulin was determined with an Olympus microscope (150×) and image analysis software (Image Pro Plus Version 4.0, Media Cybernetics).
(§2) A repeat-dose toxicology study was conducted in mice with 31 days of daily injection of INGAP Peptide at 0, 2, 20, and 100 mg/kg/day. In this study, four treatment groups of 10 males and 10 females each were allocated, as were two groups of recovery animals (5 males and 5 females). Blood was collected at termination and necropsies were performed for gross and microscopic observations. Clinical pathology and serum levels were evaluated in approximately half the animals in each group. Selected organs (brain, adrenal, heart, kidney, liver, lung, pancreas, and spleen) were weighed and relative organ weights were calculated. A section of the pancreas was removed and frozen in liquid nitrogen for evaluation for insulin content and sections of pancreas tissue were submitted for independent microscopic examination. Recovery animals were terminated 28 days after cessation of dosing. Various parameters for further study as well as potentially drug-related abnormal findings were evaluated to determine the reproducibility and potential clinical significance.

[2] = 31-day mouse repeat-dose toxicology study; format: in vivo, mice; conditions: mouse, in vivo; CD-1 mice, 31-day dosing; read-out: no adverse effect level (NOAEL)
Protocol: as §1, §2

[3] = test system: C57BL/6J mice made diabetic with STZ; test: In vivo efficacy study in streptozotocin-diabetic mice
Protocol: FIG. 3. Time course of blood glucose following injection of INGAP Peptide […] twice daily or saline for 39 days to C57BL/6J mice rendered diabetic using a regimen of multiple injections of low-dose streptozotocin. Blood glucose levels were measured every three days.
C57BL/6J mice were made diabetic with STZ (35 mg/kg/day×5 days) and divided in INGAP Peptide-treated (250 ? g twice daily) and saline control groups of 4 animals each. […] The appearance of glucagon producing cells is noteworthy since glucagon plays a major role in the defense against hypoglycemia. This feature of the INGAP Peptide induced islet neogenesis could help to reverse the impaired counter regulatory control of hypoglycemia associated with the overzealous treatment of diabetes. Hypoglycemia was not observed in any of the INGAP Peptide-treated animals. In saline-treated control animals, no new islet formation was observed.

patients = test: Human clinical studies in type I or type II diabetes mellitus; format: in vivo; conditions: versus placebo
Protocol: Doses are often based on the results of efficacy and safety studies in animals. Two doses of INGAP Peptide, 7.5 mg (0.125 mg/kg, or 4.625 mg/m^2 for a 60 kg patient) and 120 mg ([…], or 74 mg/m^2 for a 60 kg patient) are exemplified in the treatment of type I or type II diabetes mellitus. The following parameters are evaluated to determine efficacy of INGAP Peptide treatment. • 1. A reduction of fasting glucose levels by >35 mg/dl while the total insulin dose is maintained. • 2. A reduction of insulin dose by 25% with fasting glucose levels maintained in the normal range as determined by the American Diabetes Association (ADA) criteria. • 3. An increase in fasting C-peptide >1 ng/ml is obtained. An increase in C-peptide of >2 ng/ml in response to Sustacal® (Boost®) is obtained.
Each patient is randomized to receive one single intramuscular injection of INGAP Peptide. After evaluating efficacy and safety data, patients could be given further INGAP Peptide injections as deemed appropriate by the physician.
Stimulated C-peptide tests are performed in the morning after an overnight fasting period of at least 10 hours. The tests are performed only if the fasting glucose is between 80 and 250 mg/dl. Patients can take their diabetes medications the evening before, but should not take them the morning of the test until the test is completed. Blood samples for the determination of C-peptide are drawn immediately before Boost® ingestion, and at 0.5, 2, and 4 hours post-ingestion. Boost® is administered through ingestion. Patients are considered insulin deficient if their fasting C-peptide is <1.0 ng/ml and their maximum stimulated C-peptide value is <2.0 ng/ml.

normal hamsters = test: Islet formation in normal hamsters; format: in vivo, Syrian golden Hamsters; conditions: 5 mg/kg IP daily
Protocol: FIG. 2. Increase in pancreatic endocrine cell mass with INGAP Peptide. Normal Syrian golden Hamsters were treated with saline (control) or INGAP Peptide IP for either 10 days or 30 days. The number of islets/ml was determined with a computer-aided Morphometric system employing Image-Pro Plus software.
INGAP Peptide was studied for its effects on islet formation in normal hamsters. INGAP Peptide 5 mg/kg (25 mg/m^2) was given IP daily for 4 weeks and β-cell mass was assessed at 10 days and at 30 days. […] The islet neogenesis effect was manifested by production of more insulin and an increase in the number of islets in the pancreata. Newly formed β-cells appeared in the wall of, and budding from, pancreatic ducts. These insulin-positive cells resulted from ductal epithelial cell differentiation and islet cell growth, and their appearance was proportional to the dose and duration of treatment with INGAP Peptide. Over longer periods of treatment, these cells migrated away from the duct and formed islets in the parenchyma of the pancreas. After 10 consecutive days of INGAP Peptide administration, there was a 30% increase in islet number, and by 30 days there was a doubling of the number of islets in the tissues, consistent with the prior observations using ilotropin, INGAP, and cellophane wrapping in animal models.

[4] = Stability of bulk INGAP Peptide (lyophilized powder); format: physicochemical
Protocol: Stability is determined by comparing various parameters including, but not limited to, degree of purity, total percentage of impurities, percentage of individual impurities (as determined by HPLC or other suitable quantitative method), appearance, and water content of the sample. An HPLC method can be used to determine any increase in the levels of degradation products relative to the level of INGAP Peptide. INGAP Peptide samples (both solution and lyophilized powder) are stored at various temperatures, in the presence or absence of humidity, and in light or dark vials. Degradation during different storage conditions can lead to an increase in impurities and decrease in INGAP Peptide content. It is desirable that the sample preparation is more than 80% pure, preferably more than 90% pure, more preferably more than 95%, and most preferably more than 97% pure.
Purity of the INGAP Peptide is maintained under these conditions and degradation products are lower than the acceptable levels.

Structure (SMILES): CC[C@H](C)[C@H](N)C(=O)NCC(=O)N[C@@H](CC(C)C)C(=O)N[C@@H](Cc1c[nH]cn1)C(=O)N[C@@H](CC(=O)O)C(=O)N1CCC[C@H]1C(=O)N[C@@H](CO)C(=O)N[C@@H](Cc1c[nH]cn1)C(=O)NCC(=O)N[C@H](C(=O)N[C@@H](CC(C)C)C(=O)N1CCC[C@H]1C(=O)N[C@@H](CC(N)=O)C(=O)NCC(=O)N[C@@H](CO)C(=O)O)[C@@H](C)O [INGAP Peptide, NH2-Ile-Gly-Leu-His-Asp-Pro-Ser-His-Gly-Thr-Leu-Pro-Asn-Gly-Ser-COOH] (H-IGLHDPSHGTLPNGS-OH)
- increase in cell count compared with controls ([1]; 0.1 µg/ml INGAP Peptide, 24 h, BrdU ELISA): ~1.6 fold
- cell number, dose dependence [1]: dose dependant increase in cell number
- pancreatic tissue section review (beagle dogs; 34-day daily IM dosing): no changes such as edema, inflammatory cell infiltration, necrosis or atrophy
- pancreatic β-cell mass (beagle dogs; daily IM 0.5, 1.5, 10 mg/kg/day for 34 days, immunohistochemistry, FIG. 8): increased
- insulin-positive tissue area (CD-1 mice; 31 days, FIG. 7): increase in insulin-positive tissue area
- number of small islets (CD-1 mice; duct-associated and amongst acinar tissue): increase in the number of small islets
- extramedullary hematopoiesis in the spleen (CD-1 mice; mouse, in vivo): seen in one male animal at the high dose
- injection site irritation (CD-1 mice; mouse, in vivo): observed in males and females with increased frequency at the highest dose
- microscopic pancreas findings (CD-1 mice; mouse, in vivo): No microscopic evidence of inflammatory cell infiltration, edema, necrosis or atrophy
- NOAEL [2]: > 100 mg/kg
- blood glucose concentrations ([3]; 250 µg twice daily for 39 days, all four treated animals, FIG. 3): restored to normal
- transdifferentiation of ductal cells (PDX-1 expression) ([3]; FIG. 5): induced transdifferentiation of ductal cells
- histopathologic evaluation of islets ([3]; FIGS. 4 and 6): both the presence of normal-appearing islets and areas of new islet formation
- hypoglycemia ([3]; any of the treated animals): not observed
- durability of the effect after dosing stopped ([3]; dosing stopped after 39 days, study terminated at 48 days): 48 days
- islet inflammation ([3]; versus saline-treated STZ-diabetic animals, FIG. 6): markedly reduced
- sugar tolerance (patients; intramuscular injection): improved sugar tolerance
- C-peptide level in response to Boost® (patients): an increase in C-peptide level in response to Boost®
- fasting C-peptide level (patients): an increase in fasting C-peptide level
- fasting glucose level (patients): a reduction in fasting glucose level
- insulin dose required (patients): a reduction in insulin does required
- number of islets compared with placebo-treated animals (normal hamsters; FIG. 2): significant increase
- increase in islet number (normal hamsters; after 10 consecutive days): 30%
- number of islets in the tissues (normal hamsters; by 30 days): doubling
- degradation on further storage ([4]; lyophilized powder, storage up to six-months): does not cause any noticeable degradation
- stability of lyophilized powder ([4]; various storage conditions): stable under various storage conditions
